The results in this text go back to US9023354B2, “Combination therapy with MDM2 and EFGR inhibitors” (priority 2010, dated 2015).

Like-named read-outs stand apart in the source and are kept apart here.

For one assay, the system named is A549 cells. The experiment in a line: DNA fragmentation (Cell Death Detection ELISA), measurement of apoptosis. The following applies: Homo sapiens.
A further assay relates to A431 cells. The experiment in a line: A431 cell proliferation assay (MTT), alone and in combination with Tarceva. Format: cell-based. The note with it: for IC50: Homo sapiens, A-431, A431 cells, further studies, Example 9, Table 7A, read-out: A431 Cell Proliferation (IC50 Value); for A431 Cell Proliferation CI Value: combination with Tarceva, CI <0.8 indicates synergy, Example 9, Table 7B. As for the experimental part: This example describes an assay that measures the ability of compounds to inhibit the proliferation of cultured cells. This assay can also be used to assess whether combining two or more compounds produces additive, synergistic, or antagonistic effects on cell growth.
On day 1, the cells were seeded at 10^3 cells per well in 100 μl of complete media under standard conditions.
On day 2, the cells were washed and 100 μl serum free media was added. The cells were then incubated for at least 2 hours before the addition of compound(s). 20 μl of compound(s) was added to the respective wells and incubated at 37° C., 5% CO2 for 72 hrs.
On day 5, 50 μl of the MTT dye solution was added to each well. The plates were incubated at 37° C., 5% CO2 for 1 hr. The media was then aspirated and the cells were resuspended in […] of DMSO. The plates were allowed to incubate for 5 min at room temperature with gentle shaking.
The absorbance in each well was determined at 560 nm using a Polarstar plate reader.
The A431 cell line over-expresses the EGF receptor, and was utilized to assess the ability of AD4 compounds to inhibit EGF-mediated cell proliferation.

Where [1] appears, read: A549, read-out: % Inc. Relative to Staurosporin (500 nM), DNA fragmentation.
The mark [2] stands for this setting: A549, read-out: % Inc. over Background, DNA fragmentation.

Description for A549 cells: The plates were allowed to incubate overnight @ 37° C., 5% CO2. On day 2, the media was removed from the plates and 160 μl media containing 5% FBS was added. 40 μl of media-containing test compound in 100% DMSO (prepared at 5× the dosing concentration) was added to the existing media resulting in a final DMSO concentration of 0.5%. Cells were incubated in the presence of a compound for 24 hrs @ 37° C., 5% CO2.
After 24 hrs, the abovementioned plates were centrifuged at 200×g for 10 min. The media was removed by gently inverting the plate and disposing of the media onto a paper towel. The plates were tapped gently to remove excess media. 200 μl lysis buffer was added to each well, and mixed by shaking at 300 rpm. The plates were incubated at room temperature for 30 min. The plates were centrifuged at 200×g for 10 min and 20 μl of lysis supernatant was removed for use in ELISA analysis to detect cell death.
20 μl of the cell lysis supernatant was placed into streptavidin-coated plates with 20 μl positive control and 20 μl incubation buffer negative control. Add 80 μl Immunoreagent (for DNA fragment detection) to each well. The wells were covered with foil adhesive and shaken at 300 rpm for 2 h at room temperature. The supernatant solution was removed and the wells were washed 3 times with 300 μl incubation buffer. 100 μl of ABTS detection substrate was added to each well. The wells were incubated on a plate shaker at 250 rpm for approximately 10-20 min. 100 μl ABTS of stop buffer was then added. […] The absorbance measures the colored product spectrophotometrically, correlating with apoptosis.
The percent increase in DNA fragmentation produced by compounds at a concentration of 1 and 10 μM were compared to background, and to the response produced by 500 nM staurosporin.

In the case of `Oc1c(C(Nc2cc(Cl)c(Cl)cn2)c2cccc(Cl)c2Cl)ccc2cccnc12` (stereo not drawn) [AD4-13172], the results for the activation at 1 µM with A549 cells (setting [1]) and in the assay with A549 cells (setting [2]) were 32% and 355%, respectively. Besides, the activation at 10 µM is 70% in the assay on A549 cells (setting [1]) and 782% in the assay with A549 cells (setting [2]).

Turning to `Cc1cc(NC(c2ccc(Cl)cc2Cl)c2ccc3cccnc3c2O)ncc1Cl` (stereo not drawn) [AD4-13123], in the assay with A549 cells (setting [1]), the activation at 1 µM turned out to be 40% and the activation at 10 µM came out at 51%. In the assay with A549 cells (setting [2]), the activation at 1 µM turned out to be 366% and the activation at 10 µM was determined as 476%.

For `Oc1c(C(Nc2ccc(C(F)(F)F)cn2)c2ccc(C(F)(F)F)cc2)ccc2cccnc12` (stereo not drawn) [AD4-13028], in the assay on A431 cells, the IC50 stood at 1800 nM and the “A431 Cell Proliferation CI Value” stood at 0.76.

With `Oc1c(C(Nc2ccc(Cl)cn2)c2c(Cl)cccc2Cl)ccc2cccnc12` (stereo not drawn) [AD4-13109], in the assay with A431 cells, the IC50 was 1500 nM and the “A431 Cell Proliferation CI Value” turned out to be 0.88.

Turning to `Cc1cc(NC(c2cc(Cl)ccc2Cl)c2ccc3cccnc3c2O)ncc1F` (stereo not drawn) [AD4-13118], in the assay on A431 cells, the “A431 Cell Proliferation CI Value” amounted to 0.60.

Take `COc1ccc(C(Nc2cc(C)c(Cl)cn2)c2ccc3cccnc3c2O)cc1OC` (stereo not drawn) [AD4-13194]: in the assay with A431 cells, the “A431 Cell Proliferation CI Value” was 0.97.

`Oc1c(C(Nc2ccc(F)cn2)c2cc(Cl)cc(Cl)c2)ccc2cccnc12` (stereo not drawn) [AD4-13098]: in the assay with A431 cells, the IC50 came out at 1600 nM and the “A431 Cell Proliferation CI Value” was determined as 0.86.

For `COc1ccc(C(Nc2ncc(Cl)cc2C)c2ccc3cccnc3c2O)cc1OC` (stereo not drawn) [AD4-13193], the “A431 Cell Proliferation CI Value” in the assay with A431 cells stood at 0.92.

For `Cc1cccc(NC(c2cc(Cl)cc(Cl)c2)c2cc(Cl)c3cccnc3c2O)n1` (stereo not drawn) [AD4-13076], in the assay with A431 cells, the IC50 came to 1400 nM and the “A431 Cell Proliferation CI Value” was 0.71.

For the molecule `Cc1cccc(NC(c2ccc(Cl)c(Cl)c2)c2ccc3ccc(C)nc3c2O)n1` (stereo not drawn) [AD4-13080], in the assay on A431 cells, the “A431 Cell Proliferation CI Value” was 0.68.

Consider `Cc1cccc(NC(c2ccc3ccc(C)nc3c2O)c2c(Cl)cccc2Cl)n1` (stereo not drawn) [AD4-13089], for which, in the assay on A431 cells, the “A431 Cell Proliferation CI Value” was 0.67.

In the case of `Oc1c(C(Nc2ccccn2)c2c(F)c(F)c(OCC(F)(F)F)c(F)c2F)ccc2cccnc12` (stereo not drawn) [AD4-13093], in the assay on A431 cells, the IC50 was 1800 nM and the “A431 Cell Proliferation CI Value” worked out at 0.80.

Consider `Oc1c(C(Nc2ccc(F)cn2)c2cc(C(F)(F)F)ccc2Cl)ccc2cccnc12` (stereo not drawn) [AD4-13049], for which, in the assay on A431 cells, the IC50 worked out at 1800 nM and the “A431 Cell Proliferation CI Value” was 0.84.

With `Cc1cccc(NC(c2cccc(Cl)c2Cl)c2ccc3ccc(C)nc3c2O)n1` (stereo not drawn) [AD4-13073], in the assay with A431 cells, the IC50 amounted to 1600 nM and the “A431 Cell Proliferation CI Value” is listed as 0.85.

With `Oc1c(C(Nc2ccc(C(F)(F)F)cn2)c2ccc(Cl)c(Cl)c2)ccc2cccnc12` (stereo not drawn) [AD4-13030], in the assay with A431 cells, the IC50 came out at 2000 nM and the “A431 Cell Proliferation CI Value” stood at 0.83.

For the molecule `Oc1c(C(Nc2ccc(C(F)(F)F)cn2)c2ccc(F)cc2F)ccc2cccnc12` (stereo not drawn) [AD4-13029], in the assay on A431 cells, the IC50 turned out to be 1800 nM and the “A431 Cell Proliferation CI Value” turned out to be 0.83.

As to `Cc1ccnc(NC(c2cccc(Cl)c2Cl)c2ccc3cccnc3c2O)c1` (stereo not drawn) [AD4-12906], the “A431 Cell Proliferation CI Value” with A431 cells was determined as 0.66.

In the case of `Cc1ccc2ccc(C(Nc3ncc(Cl)cc3C)c3ccc(Cl)cc3Cl)c(O)c2n1` (stereo not drawn) [AD4-13200], in the assay with A431 cells, the IC50 came to 1500 nM and the “A431 Cell Proliferation CI Value” came to 0.97.

Turning to `Cc1cc(Cl)ccc1NC(c1ccc(Cl)cc1Cl)c1ccc2cccnc2c1O` (stereo not drawn) [AD4-13201], in the assay with A431 cells, the IC50 is 2000 nM and the “A431 Cell Proliferation CI Value” is listed as 0.82.

In the case of `Oc1c(C(Nc2ccc(Cl)cn2)c2ccc(Cl)c(Cl)c2)ccc2cccnc12` (stereo not drawn) [AD4-13054], the “A431 Cell Proliferation CI Value” in the assay on A431 cells is 0.61.

For the molecule `Oc1c(C(Nc2ccc(C(F)(F)F)cn2)c2cc(C(F)(F)F)ccc2Cl)ccc2cccnc12` (stereo not drawn) [AD4-13056], in the assay with A431 cells, the IC50 is 1900 nM and the “A431 Cell Proliferation CI Value” stood at 0.63.

On to `Cc1cc(NC(c2ccc3cccnc3c2O)c2c(Cl)cccc2Cl)ncc1F` (stereo not drawn) [AD4-13125], for which, in the assay with A431 cells, the IC50 was 1700 nM and the “A431 Cell Proliferation CI Value” is given as 0.70.

As to `Cc1ccnc(NC(c2cc(Cl)cc(Cl)c2)c2ccc3cccnc3c2O)c1` (stereo not drawn) [AD4-12915], in the assay with A431 cells, the IC50 was found to be 1100 nM and the “A431 Cell Proliferation CI Value” is 0.68.

In the case of `Cc1cc(NC(c2ccc(Cl)c(C(F)(F)F)c2)c2ccc3cccnc3c2O)ncc1Cl` (stereo not drawn) [AD4-13108], in the assay on A431 cells, the IC50 is 1600 nM and the “A431 Cell Proliferation CI Value” is given as 0.84.

For the molecule `Cc1cc(NC(c2cc(Cl)cc(Cl)c2)c2ccc3cccnc3c2O)ncc1F` (stereo not drawn) [AD4-13114], in the assay with A431 cells, the IC50 is 860 nM and the “A431 Cell Proliferation CI Value” is reported as 0.81.

In the case of `Oc1c(C(Nc2ccc(C(F)(F)F)cn2)c2ccc(C(F)(F)F)c(F)c2)ccc2cccnc12` (stereo not drawn) [AD4-13034], in the assay on A431 cells, the IC50 was determined as 1900 nM and the “A431 Cell Proliferation CI Value” was determined as 0.70.

With `Cc1cc(Cl)cnc1NC(c1ccc2cccnc2c1O)c1c(F)c(F)cc(F)c1F` (stereo not drawn) [AD4-13059], in the assay with A431 cells, the IC50 was 1000 nM and the “A431 Cell Proliferation CI Value” turned out to be 0.71.

On to `Cc1cc(NC(c2ccc(C(F)(F)F)c(F)c2)c2ccc3cccnc3c2O)ncc1Cl` (stereo not drawn) [AD4-13106], for which, in the assay on A431 cells, the IC50 was determined as 650 nM and the “A431 Cell Proliferation CI Value” is 0.75.

`Oc1c(C(Nc2ccc(F)cn2)c2ccc(Cl)c(Cl)c2)ccc2cccnc12` (stereo not drawn) [AD4-13113]: the “A431 Cell Proliferation CI Value” in the assay on A431 cells came out at 0.59.

Take `Cc1ccnc(NC(c2ccc(Cl)cc2Cl)c2ccc3cccnc3c2O)c1` (stereo not drawn) [AD4-12912]: in the assay on A431 cells, the IC50 worked out at 1200 nM and the “A431 Cell Proliferation CI Value” was determined as 0.70.

`Cc1cccc(NC(c2cc(Cl)cc(Cl)c2Cl)c2ccc3cccnc3c2O)n1` (stereo not drawn) [AD4-13023]: in the assay with A431 cells, the IC50 came to 1800 nM and the “A431 Cell Proliferation CI Value” amounted to 0.74.

As to `Oc1c(C(Nc2ccc(F)cn2)c2c(F)cccc2Cl)ccc2cccnc12` (stereo not drawn) [AD4-13112], in the assay with A431 cells, the IC50 worked out at 2100 nM and the “A431 Cell Proliferation CI Value” amounted to 0.73.

As for `Cc1cc(Cl)cnc1NC(c1cc(C(F)(F)F)ccc1Cl)c1ccc2cccnc2c1O` (stereo not drawn) [AD4-13058], the “A431 Cell Proliferation CI Value” in the assay on A431 cells amounted to 0.50.

For `Cc1cccc(NC(c2ccc(Cl)cc2Cl)c2ccc3cccnc3c2O)n1` (stereo not drawn) [AD4-12911], in the assay on A431 cells, the IC50 stood at 1400 nM and the “A431 Cell Proliferation CI Value” came out at 0.76.

Regarding `Cc1ccnc(NC(c2cc(Cl)cc(Cl)c2)c2cc(Cl)c3cccnc3c2O)c1` (stereo not drawn) [AD4-13079], in the assay on A431 cells, the IC50 is 1800 nM and the “A431 Cell Proliferation CI Value” is 0.91.

On to `Cc1cc(NC(c2ccccc2Cl)c2ccc3cccnc3c2O)ncc1F` (stereo not drawn) [AD4-13116], for which the “A431 Cell Proliferation CI Value” in the assay on A431 cells amounted to 0.52.

For `COc1ccc(C(Nc2cccc(C)n2)c2ccc3cccnc3c2O)cc1O` (stereo not drawn) [AD4-12909], the “A431 Cell Proliferation CI Value” with A431 cells is on record as 0.54.

As to `Oc1c(C(Nc2cc(Cl)ccn2)c2cc(C(F)(F)F)ccc2Cl)ccc2cccnc12` (stereo not drawn) [AD4-13060], in the assay with A431 cells, the IC50 was determined as 1500 nM and the “A431 Cell Proliferation CI Value” came to 0.76.

As to `Cc1nc(NC(c2ccc(Cl)c(Cl)c2)c2ccc3cccnc3c2O)c(Cl)cc1Cl` (stereo not drawn) [AD4-13202], the “A431 Cell Proliferation CI Value” with A431 cells was found to be 0.87.

For `Cc1cccc(NC(c2cccc(C(F)(F)F)c2)c2ccc3cccnc3c2O)n1` (stereo not drawn) [AD4-12903], in the assay on A431 cells, the “A431 Cell Proliferation CI Value” worked out at 0.67.

Regarding `Cc1c(Cl)cnc(NC(c2ccc(Cl)cc2Cl)c2ccc3cccnc3c2O)c1F` (stereo not drawn) [AD4-13199], in the assay with A431 cells, the IC50 was found to be 2000 nM and the “A431 Cell Proliferation CI Value” was found to be 1.1.

Take `Oc1c(C(Nc2ccc(C(F)(F)F)nc2)c2ccc(C(F)(F)F)cc2F)ccc2cccnc12` (stereo not drawn) [AD4-13065]: in the assay on A431 cells, the IC50 stood at 4600 nM and the “A431 Cell Proliferation CI Value” worked out at 0.61.
